Data as given in patent publication US8088806B2 (Achillion Pharmaceuticals, Inc., priority 2005, dated 2012).

tested on: HCV replicon; test: Replicon based assay of HCV replication inhibition (NPT ELISA); type: cell-based, Hepatitis C virus; conditions: Hepatitis C virus, Huh-7, 72 h, Table I; Huh-7 HCV replicon-containing cells, three days; read-out: Activity
Outline: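 Huh-7 cells carrying a bicistronic HCV replicon (neo, EMCV-IRES-driven NS3–NS5B) treated overnight after seeding with usually 6 concentrations, 10 to 0.03 micromolar, for three days at 37° C without G418. Replication read as NPT level by captured ELISA; matched-DMSO wells and interferon alpha as controls.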

| SMILES | EC50 [nM] |
| --- | --- |
| CCCCCc1ccc(Nc2nc(-c3ccc(Cl)cc3)cs2)cc1 [compound 20, 4-(4-chlorophenyl)-N-(4-pentylphenyl)thiazol-2-amine] | < 1000 |
| CCCCCOc1ccc(Nc2nc(-c3ccc(O)c(C(N)=O)c3)cs2)cc1C(F)(F)F [compound 131, 5-(2-(3-(trifluoromethyl)-4-(pentyloxy)phenylamino)thiazol-4-yl)-2-hydroxybenzamide] | < 1000 |
| CCCCCOc1ccc(Nc2ncc(C(=O)OC)s2)cc1C(F)(F)F [compound 130, methyl 2-(3-(trifluoromethyl)-4-(pentyloxy)phenylamino)thiazole-5-carboxylate] | > 10000 |
| CCCCCOc1ccc(Nc2nc(-c3ccc(F)cc3)cs2)cc1C(F)(F)F [compound 2, N-(3-(trifluoromethyl)-4-(pentyloxy)phenyl)-4-(4-fluorophenyl)thiazol-2-amine] | < 1000 |
| CCCCCOc1ccc(Nc2nc(-c3cccnc3)cs2)cn1 [compound 67, 6-(pentyloxy)-N-(4-(pyridin-3-yl)thiazol-2-yl)pyridin-3-amine] | < 1000 |

same assay, conditions: Hepatitis C virus, Huh-7, 72 h, Table III; Huh-7 HCV replicon-containing cells, three days; read-out: Activity

| SMILES | EC50 [nM] |
| --- | --- |
| CCCCCOc1ccc(Nc2nc(Cc3ccc(OC)cc3)cs2)cc1F [compound 642, 4-(4-methoxybenzyl)-N-(3-fluoro-4-(pentyloxy)phenyl)thiazol-2-amine] | > 10000 |
| CCCCCCCCOc1ccc(Nc2nc3c(s2)CCc2ccncc2-3)cc1 [compound 593, 4,5-dihydro-N-(4-(octyloxy)phenyl)thiazolo[5,4-h]isoquinolin-2-amine] | < 1000 |
| CCCCCCCCOC(=O)c1ccc(Nc2nc(-c3cccnc3)cs2)cc1C(F)(F)F [compound 697, octyl 4-(4-(pyridin-3-yl)thiazol-2-ylamino)-2-(trifluoromethyl)benzoate] | < 1000 |
| CCCCCCCCOc1ccc(Nc2nc(-c3sc(-c4cnccn4)nc3C)cs2)cc1C(F)(F)F [compound 590, N-(3-(trifluoromethyl)-4-(octyloxy)phenyl)-4-(4-methyl-2-(pyrazin-2-yl)thiazol-5-yl)thiazol-2-amine] | < 1000 |
| CCCCCCCCOc1ccc(Nc2nc(-c3ccc(-c4ccccn4)s3)cs2)cc1C(F)(F)F [compound 588, N-(3-(trifluoromethyl)-4-(octyloxy)phenyl)-4-(5-(pyridin-2-yl)thiophen-2-yl)thiazol-2-amine] | < 1000 |
| CCCCCCCOc1ccc(C(=O)Nc2nc(-c3cccnc3)cs2)cc1 [compound 602, 4-(heptyloxy)-N-(4-(pyridin-3-yl)thiazol-2-yl)benzamide] | > 10000 |
| CCCCCCCCc1ccc(Nc2nc(-c3ccc(O)c(C(N)=O)c3)cs2)cc1 [compound 545, 5-(2-(4-octylphenylamino)thiazol-4-yl)-2-hydroxybenzamide] | < 1000 |
| CCCCCOc1ccc(Nc2nc(Cc3ccc(OC)cc3)cs2)cc1C(F)(F)F [compound 639, 4-(4-methoxybenzyl)-N-(3-(trifluoromethyl)-4-(pentyloxy)phenyl)thiazol-2-amine] | 1000 to 10000 |
| CCCCCCCCOc1ccc(Nc2nc(-c3ccc(F)cc3)cs2)cc1C(F)(F)F [compound 580, N-(3-(trifluoromethyl)-4-(octyloxy)phenyl)-4-(4-fluorophenyl)thiazol-2-amine] | < 1000 |
| CCCCCOc1ccc(Nc2nc(-c3cc4cccnc4nc3O)cs2)cc1C(F)(F)F [compound 543, 3-(2-(3-(trifluoromethyl)-4-(pentyloxy)phenylamino)thiazol-4-yl)-l,8-naphthyridin-2-ol] | 1000 to 10000 |

same assay, conditions: Hepatitis C virus, replicon based assay of HCV replication inhibition; Table II; read-out: Activity

| SMILES | EC50 [nM] |
| --- | --- |
| CCOC(=O)c1ccc(Nc2nc(-c3ccc(OC)cc3)c(-c3ccc(OC)cc3)s2)cc1 [compound 334, ethyl 4-(4,5-bis(4-methoxyphenyl)thiazol-2-ylamino)benzoate] | 1000 to 10000 |
| CCCCCOc1ccc(Nc2nc(C3=NN=C(N)SC3)cs2)cc1C(F)(F)F [compound 229, 5-(2-(4-(pentyloxy)-3-(trifluoromethyl)phenyl-amino)thiazol-4-yl)-6H-1,3,4-thiazdiazin-2-amine] | < 1000 |
| CCCCCOc1ccc(Nc2nc(-c3ccc(Cl)s3)cs2)cc1C(F)(F)F [compound 405] | < 1000 |
| Cc1sc(Nc2ccc(OCC3CC3)c(C(F)(F)F)c2)nc1-c1ccc(CC(=O)O)cc1 [compound 258, 2-(4-(2-(4-(cyclopropylmethoxy)-3-(trifluoromethyl)phenyl-amino)-5-methylthiazol-4-yl)phenyl)acetic acid] | < 1000 |
| Fc1ccc(-c2csc(Nc3ccc(OCCCC4CCCC4)c(C(F)(F)F)c3)n2)cc1 [compound 494, N-(4-(3-cyclopentylpropoxy)-3-(trifluoromethyl)phenyl)-4-(4-fluorophenyl)thiazol-2-amine] | < 1000 |
| CCCCCCCCOc1ccc(Nc2nc(-c3ccc(OCC(=O)O)cc3)c(C)s2)cc1 [compound 311] | < 1000 |
| CCCCCCCCOc1ccc(Nc2nc(-c3cccnc3)cs2)cc1C(F)(F)F [compound 476, N-(3-(trifluoromeethyl)-4-(octyloxy)phenyl)-4-(pyridin-3-yl)thiazol-2-amine] | < 1000 |
| CCCCCOc1ccc(Nc2nc(-c3cc(OC)ccc3OC)cs2)cc1F [compound 433, N-(3-fluoro-4-(pentyloxy)phenyl)-4-(2,5-dimethoxyphenyl)thiazol-2-amine] | < 1000 |
| CCCCCCCCOc1ccc(Nc2nc(O)cs2)cc1 [compound 464, 2-(4-(octyloxy)phenylamino)thia-zol-4-ol] | 1000 to 10000 |
| CN1CCC[C@H](c2csc(Nc3cccc(OCc4ccccc4)c3)n2)C1 [compound 237, (S)-N-(3-(benzyloxy)phenyl)-4-(1-methylpiperidin-3-yl)thiazol-2-amine] | 1000 to 10000 |
| CCCCCOc1ccc(Nc2nc(-c3ccc(C(=O)NC)nc3)cs2)cc1C(F)(F)F [compound 259, N-methyl-5-(2-(4-(pentyloxy)-3-(trifluoromethyl)phenyl-amino)thiazol-4-yl)picolinamide] | < 1000 |
| Fc1ccc(-c2csc(Nc3ccc(OC4CCCC4)c(C(F)(F)F)c3)n2)cc1 [compound 241, N-(4-(cyclopentyloxy)-3-(trifluoromethyl)phenyl)-4-(4-fluorophenyl)thiazol-2-amine] | < 1000 |
| Cc1ccc(-c2csc(Nc3ccc(OC4CCCC4)c(C(F)(F)F)c3)n2)cn1 [compound 453, N-(4-(cyclopentyloxy)-3-(trifluoromethyl)phenyl)-4-(6-methylpyridin-3-yl)thiazol-2-amine] | < 1000 |

same assay, conditions: Hepatitis C virus, replicon based assay of HCV replication inhibition; Table IV; read-out: Activity

| SMILES | EC50 [nM] |
| --- | --- |
| O=C(O)Cc1ccc(-c2csc(Nc3ccc(OCCCCc4ccccc4)c(C(F)(F)F)c3)n2)s1 [compound 927, 2-(5-(2-(4-(4-phenylbutoxy)-3-(trifluoromethyl)phenylamino)thiazol-4-yl)thiophen-2-yl)acetic acid] | < 1000 |
| FC(F)(F)c1cccc(Nc2nc(-c3cccnc3)cs2)c1 [compound 908, N-(3-(trifluoromethyl)phenyl)-4-(pyridin-3-yl)thiazol-2-amine] | < 1000 |
| Fc1sc(Nc2ccc(OCCCC3CCCC3)c(C(F)(F)F)c2)nc1-c1cccnc1 [compound 945, N-(4-(3-cyclopentylpropoxy)-3-(trifluoromethyl)phenyl)-5-fluoro-4-(pyridin-3-yl)thiazol-2-amine] | < 1000 |
| Cc1cccc2sc(Nc3nc(-c4cccnc4)cs3)nc12 [compound 747, 4-methyl-N-(4-(pyridin-3-yl)thiazol-2-yI)benzo[d]thiazol-2-amine] | > 10000 |
